Literature values in patent US20210299068A1, “ANTIMICROBIAL COMPOSITIONS COMPRISING CHLORHEXIDINE” (3M INNOVATIVE PROPERTIES COMPANY, priority 2018, published 2021).

Settings: at neutral pH

In the case of O=C([O-])CN(CCO)CCN(CC(=O)[O-])CC(=O)[O-].[Na+].[Na+].[Na+] [HEDTA.Na3, N-(2-Hydroxyethyl)ethylenediaminetriacetic acid trisodium salt], the “Formation constant for the complex with calcium” value is given as 10^6.
